Measurements as given in patent publication US20250179113A1, “STEROID COMPOUND FOR TREATING CENTRAL NERVOUS SYSTEM DISEASE, METHOD FOR PREPARING SAME, AND USE AND PHARMACEUTICAL COMPOSITION THEREOF” (HUNAN KYF PHARMACEUTICAL CO., LTD., priority 2022, published 2025).

How the values were obtained:
[1] = tested on: GABAa receptor chloride ion channel of U251 cells; experiment: MQAE chloride ion fluorescent probe test on U251 cells (GABA-activated chloride channel); type: cell-based, human; settings: sample 10 μM (Table 1), GABA in matrix, 1 min after addition, n = 6, vehicle control 42.543 ± 4.202
[2] = tested on: mouse model of acute depression; experiment: Tail-suspension test, mouse model of acute depression; type: in vivo, ICR mice; settings: 3 days; for Average Duration of Immobile State (Mean ± Standard Deviation), female: female ICR mice, model control 170.57 ± 28.43; for Average Duration of Immobile State (Mean ± Standard Deviation), female / Average Duration of Immobile State (Mean ± Standard Deviation), male: 26.0 mg/kg intraperitoneal, tested 24 h after administration, last 4 of 6 min, n = 5, 26 mg/kg; for Average Duration of Immobile State (Mean ± Standard Deviation), male: male ICR mice, model control 151.23 ± 35.02
Method: The experimental animals were administered drugs according to the grouping after 3 days of adaptive feeding. The experimental groups included the model group, the compound TM1 group, and the compound TM2 group. For each group of compounds to be tested, edible oil was used as the vehicle, and the administration route for all animals was intraperitoneal injection. The vehicle control group was given the same volume of edible oil by intraperitoneal injection, and the administration volume for each group was 20 mL/kg.
Brexanolone is used to treat postpartum depression. Its usage and dosage are continuous intravenous injection for 60 hours, with a dosage of 100 mg every 12 hours. At the beginning of the administration, it is necessary to gradually increase the drug use rate, and at the end of the administration, it is necessary to gradually decrease the drug use rate. Therefore, the total drug use within the treatment cycle is 450 mg. Referring to the Brexanolone administration cycle, the administration cycle was set to 3 days, with one administration in the morning every day.
The clinical dosage of Brexanolone is approximately 200 mg/d. Calculated based on an adult weight of 70 kg, the clinical dose of Brexanolone is 2.857 mg/kg/d. The equivalent dose conversion coefficient between humans and mice calculated according to body surface area is 0.0026. Taking the weight of mice as 20 g, the converted dose for mice is: 2.857 mg/kg/d×70 kg×0.0026/0.02 kg=25.999 mg/kg/d, which is counted as 26.0 mg/kg/d.
This study is for validity verification, and single-dose detection is used for the time being. The administration cycle and clinical dosage of the compounds of the present invention refer to the administration cycle and clinical dosage of Brexanolone mentioned above.
The detection indicator is the behavioral changes of mice in the last 4 minutes within 6 minutes, including the time when the immobile state first appears and the duration of the immobile state. Among them, the immobile state refers to the state in which the animal gives up active struggling and remains completely still.
Detection method: 24 hours after the administration of drugs to animals in each group, the animals in each group were placed in the laboratory for 30 minutes to 1 hour to reduce the animals' anxiety about the new environment. Install a video camera in front of the tail suspension box, set the corresponding parameters in the software, and enter the information such as the animal number and status. Take out the experimental animals, mark them with a marker pen at a position […] away from the tip of the tail, fix the tail at the marked position with medical tape. After the tails of the animals in the same group are fixed with tape, quickly suspend the mice in the same group into the tail suspension box device, turn on the behavioral software to record the behavioral situation for 6 minutes, and analyze the behavioral changes in the last 4 minutes.

[3] = tested on: GABAA receptor (primary hippocampal neuronal cells); experiment: Whole-cell patch clamp of GABA receptor currents in primary hippocampal neuronal cells; type: cell-based, SD suckling mice; settings: average

SMILES	Average fluorescence intensity (mean ± standard deviation) [1]	Average Duration of Immobile State (Mean ± Standard Deviation), female [2]	Average Duration of Immobile State (Mean ± Standard Deviation), male [2]	The percentage increase after calibration with GABA 15 μM as the reference, GABA 15 μM + TM 18 0.01 μM ([3]; TM 18 0.01 μM with GABA 15 μM)	The percentage increase after calibration with GABA 15 μM as the reference, GABA 15 μM + TM 18 0.1 μM ([3]; TM 18 0.1 μM with GABA 15 μM)	The percentage increase after calibration with GABA 15 μM as the reference, GABA 15 μM + TM 18 1 μM ([3]; TM 18 1 μM with GABA 15 μM)	immobility time prolonged compared with the model control group, male animals ([2]; male mice, 26.0 mg/kg i.p.)
CC1(O)CCC2(C)C(CCC3C2CCC2(C)C(C(=O)Cn4cc(C#N)cn4)CCC32)C1 (stereo not shown) [TM17]	47.499±2.240	198.88 ± 15.08 s	177.67 ± 20.05 s	–	–	–	–
CC1(O)CCC2(C)C(CCC3C2CCC2(C)C(C(=O)Cn4cc(C#N)cn4)CCC32)C1 (stereo not shown) [TM18]	48.621±1.006	174.02 ± 18.28 s	193.80 ± 15.62 s	129.85%	288.44%	108.82%	about 20%
